Values quoted from earlier work as cited in patent US20210205199A1, “Dermatological Cosmetic Composition Comprising an SDKP Peptide or an Analog Thereof” (RPM Dermatologie, priority 2016, published 2021).

Details: result in words; background

## acetyl-serine-aspartic acid-lysine-proline-OH [Ac-SDKP-OH]
  Sensitivity to enzymatic hydrolysis: very sensitive to enzymatic hydrolysis
  Stability to hydrolysis: hydrolyzes very easily
